In ChEMBL document CHEMBL1128145, “N-(carbobenzyloxy)isatin: A slow binding -keto lactam inhibitor of -chymotrypsin” (Bioorg Med Chem Lett, 1995):

How the values were obtained:
Chymotrypsinogen B [1] = biological target: T1, Chymotrypsinogen B (Homo sapiens, UniProt P17538); experiment: Inhibition constant against Alpha-chymotrypsin inhibitor was determined
Chymotrypsinogen B [2] = biological target: T1, Chymotrypsinogen B
Description: (§1) Rate constant against alpha-chymotrypsin

Chymotrypsinogen B [3] = biological target: T1, Chymotrypsinogen B; remark: listed apart in the source
Description: as §1

Chymotrypsinogen B [4] = biological target: T1, Chymotrypsinogen B; remark: listed apart in the source
Description: Rate constant against alpha-chymotrypsin from time dependent inhibition and reactivation data

Chymotrypsinogen B [5] = biological target: T1, Chymotrypsinogen B; remark: listed apart in the source
Description: Rate constant against Alpha-chymotrypsin from time dependent inhibition and reactivation data

Chymotrypsinogen B [6] = biological target: T1, Chymotrypsinogen B; experiment: Inhibition constant against alpha-chymotrypsin

T1 sequence (P17538 34-164 limits assumed, other chains not shown): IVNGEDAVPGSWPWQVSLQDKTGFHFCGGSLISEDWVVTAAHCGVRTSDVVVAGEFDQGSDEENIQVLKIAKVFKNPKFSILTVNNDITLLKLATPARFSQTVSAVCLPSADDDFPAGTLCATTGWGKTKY
T1 sequence (P17538 167-263 limits assumed, other chains not shown): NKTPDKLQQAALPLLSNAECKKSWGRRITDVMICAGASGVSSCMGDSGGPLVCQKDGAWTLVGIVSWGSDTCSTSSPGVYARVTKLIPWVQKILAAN

Ki (Chymotrypsinogen B [1]) | k off (Chymotrypsinogen B [2]) | k on (Chymotrypsinogen B [3]) | k off (Chymotrypsinogen B [4]) | k on (Chymotrypsinogen B [5]) | Ki (Chymotrypsinogen B [6]) | SMILES
> 2000 µM | – | – | – | – | – | CC(C)(C)OC(=O)N1C(=O)C(=O)c2ccccc21
– | 0.00095 s⁻¹ | 254 M⁻¹ s⁻¹ | 4.01e-05 s⁻¹ | 7.63 M⁻¹ s⁻¹ | 3.8 µM | O=C1C(=O)N(C(=O)OCc2ccccc2)c2ccccc21
